Test results taken from patent US11230550.
Where two headings read alike, the source gives them in different places.

Conditions: rcm bond, Grubbs I, CH2Cl2, 40.0 °C

Compound | ring closure, yield of all isomers (from C=CCCCCN(C[C@@H](O)[C@H](Cc1ccccc1)NC(=O)OC(C)(C)C)S(=O)(=O)c1ccc([N+](=O)[O-])cc1COCC=C, 1.625 mM, 3.0 h) [%] | ring closure, yield of all isomers (from C=CCCCCN(C[C@@H](O)[C@H](Cc1ccccc1)NC(=O)OC(C)(C)C)S(=O)(=O)c1ccc(OC)cc1COCC=C, 2.65 mM, 4.0 h) [%]
CC(C)(C)OC(=O)N[C@@H](Cc1ccccc1)[C@H](O)CN1CCCCC=CCOCc2cc([N+](=O)[O-])ccc2S1(=O)=O | 92 | –
COc1ccc2c(c1)COCC=CCCCCN(C[C@@H](O)[C@H](Cc1ccccc1)NC(=O)OC(C)(C)C)S2(=O)=O | – | 93
